“Also recorded” adds a separate entry of the source.
Tests used:
HCoV-229E [1] = experiment: HCoV-229E-Luc infection inhibition assay (fractions and pure compounds) in Huh7 cells; type: cell-based; conditions: for IC50: Human coronavirus 229E, Huh-7, 12 h, read-out: IC50 (concentration inhibited infection by 50%)
in vitro [2] = conditions: human
in vitro [3] = conditions: African green monkey
SARS-CoV-2 [4] = experiment: microbe, parasite or virus in culture; type: cell-based; conditions: for selectivity index (SI): SARS-CoV-2, Vero-E6 cells; for IC50: Severe acute respiratory syndrome coronavirus 2, Vero C1008, 48 h, read-out: IC50 against SARS-CoV-2
HCoV-229E [5] = experiment: microbe, parasite or virus in culture; type: cell-based; conditions: Human coronavirus 229E, Huh-7; read-out: inhibition of infection after pre-incubation of virus particles
SARS-CoV-2 [6] = type: cell-based
HCoV-229E [7] = experiment: Time-of-drug addition assay in HCoV-229E-Luc-infected Huh7 cells; type: cell-based; conditions: 2 and 3 at 0.2 µM; for inhibition of infection when present during the virus entry step: Q3G 25 µM, co-added with virus for 1 h; for inhibition of infection when added after virus inoculation (replication step): Remdesivir 0.1 µM, luciferase activity

| SMILES | antiviral activity against HCoV-229E (in words) (HCoV-229E [1]; non-cytotoxic doses (up to 0.25 µM), Huh7 cells) | CC50 (in vitro [2]) [nM] | CC50 (in vitro [3]) [nM] | antiviral activity against SARS-CoV-2 (in words) (SARS-CoV-2 [4]; Vero-E6 cells, non-cytotoxic concentrations) | inhibition at 0.2 µM (HCoV-229E [5]) [%] | decrease of viral progeny (residual infectivity) (SARS-CoV-2 [6]) | SI, selectivity index (CC50/IC50) (HCoV-229E [1]) | effect on HCoV-229E-Luc infection at 0.01 µM without pre-incubation (HCoV-229E [1]; Huh7 cells) | IC50 (HCoV-229E [1]) [nM] | selectivity index (SI) (SARS-CoV-2 [4]) | IC50 (SARS-CoV-2 [4]) [nM] | inhibition of infection when present during the virus entry step (HCoV-229E [7]) | inhibition of infection when added after virus inoculation (replication step) (HCoV-229E [7]) |
| --- | --- | --- | --- | --- | --- | --- | --- | --- | --- | --- | --- | --- | --- |
| CCCC=CCCCCCCCCCCCC(O)Cc1cc(O)ccc1O (stereo not drawn) [Compound 1, (2′. R)-2-[(14′Z)-2′-Hydroxyoctadec-14′-en-1′-yl]benzene-1,4-diol] | no antiviral effect; also recorded: no antiviral activity | 1300 ± 100 | 1500 ± 200 | no antiviral activity | – | – | – | – | – | – | – | – | – |
| CCCCC=CCCCCCCCCCCCC(O)Cc1cc(O)ccc1O (stereo not drawn) [Compound 2, (2′R)-2-[(14′Z)-2′-hydroxynonadec-14′-en-1′-yl]benzene-1,4-diol] | – | 500 ± 50 | 500 ± 80 | – | ≤ 60 | up to 1 log | 5 | does not inhibit | 100 ± 30 | 2.5 | 200 | strong inhibition of infection | no inhibition of infection |
| CCCCCCCCCCCCCCCC[C@@H](O)Cc1cc(O)ccc1O [Compound 3, (2′R)-(2-(2-hydroxyoctadecyl)benzene-1,4-diol)] | – | 800 ± 100 | 900 ± 200 | – | ≤ 80 | – | 16 | does not inhibit | 50 ± 40 | 18 | 50 | strong inhibition of infection | no inhibition of infection |
| O=c1c(O[C@@H]2O[C@H](CO)[C@@H](O)[C@H](O)[C@H]2O)c(-c2ccc(O)c(O)c2)oc2cc(O)cc(O)c12 [Compound Q3G, Isoquercitrin, reference compound] | – | – | – | – | – | – | – | – | – | – | – | strong inhibition of infection | – |
| CCC(CC)COC(=O)[C@H](C)N[P@](=O)(OC[C@H]1O[C@@](C#N)(c2ccc3c(N)ncnn23)[C@H](O)[C@@H]1O)Oc1ccccc1 [Remdesivir, reference compound] | – | – | – | – | – | – | – | – | – | – | – | – | strongly inhibited viral replication |
